Data taken from patent publication US7465799B2, “Methods and compositions for selectin inhibition” (Wyeth, priority 2003, dated 2008).

Biological target: T1, P-selectin binding to P-selectin glycoprotein ligand-1 (PSGL-1) (Homo sapiens, UniProt P16109)
T1 construct: truncated form of human P-selectin comprised of the lectin and EGF domains (P-LE)
T1 sequence (P16109 42-198): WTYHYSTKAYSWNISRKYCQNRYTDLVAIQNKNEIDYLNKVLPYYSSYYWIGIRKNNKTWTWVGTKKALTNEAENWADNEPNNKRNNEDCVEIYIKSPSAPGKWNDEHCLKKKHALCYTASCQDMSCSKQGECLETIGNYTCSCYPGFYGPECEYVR
Test: Biacore assay: inhibition of P-selectin (P-LE) binding to PSGL-1 (SGP-3)
Conditions: at 1 mM
Procedure: Compounds of the invention can be assayed for selectin inhibitory activity using any of the procedures known in the art. One convenient procedure is the determination of IC50 values for inhibition of P-selectin binding to P-selectin glycoprotein ligand-1 (PSGL-1) using Biacore.
The Biacore 3000 is an instrument that uses surface plasmon resonance to detect binding of a solution phase analyte to an immobilized ligand on a sensor chip surface. The analyte sample is injected under flow using a microfluidic system. Binding of analyte to ligand causes a change in the angle of refracted light at the surface of the sensor chip, measured by the Biacore instrument in resonance units (RUs).
SGP-3 is a purified sulfoglycopeptide form of human PSGL-1 that contains the P-selectin binding determinants (See Somers et al., 2000, Cell 103, 467-479). SGP-3 was biotinylated via amine chemistry at a unique C-terminal lysine residue and immobilized on streptavidin-coated SA sensor chip. […]
The Biacore assay measures the signal in RU produced by binding of P-LE to SGP-3 in the presence and absence of inhibitors. Percent inhibition of binding is calculated by dividing the inhibited signal by the uninhibited signal subtracting this value from one then multiplying by one hundred. […] The data from this titration are plotted, RU values vs. concentration, and the IC50 is determined by extrapolation from the plot. […]

CC1(C)[C@@H](O[C@H]2O[C@H](C(=O)O)[C@@H](O)[C@H](O)[C@H]2O[C@@H]2O[C@H](C(=O)O)[C@@H](O)[C@H](O)[C@H]2O)CC[C@]2(C)[C@H]3C(=O)C=C4[C@@H]5C[C@@](C)(C(=O)O)CC[C@]5(C)CC[C@@]4(C)[C@]3(C)CC[C@@H]12 [Glycerrhizzin]
Percent inhibition of binding (positive control): 50%
